Assay [1] addresses T1, AaegIR75k1 (Aedes aegypti, UniProt A0A6I8TFY9).
T1 construct: gene 5563741; with AaegIR8a
T1 sequence (A0A6I8TFY9 20-624): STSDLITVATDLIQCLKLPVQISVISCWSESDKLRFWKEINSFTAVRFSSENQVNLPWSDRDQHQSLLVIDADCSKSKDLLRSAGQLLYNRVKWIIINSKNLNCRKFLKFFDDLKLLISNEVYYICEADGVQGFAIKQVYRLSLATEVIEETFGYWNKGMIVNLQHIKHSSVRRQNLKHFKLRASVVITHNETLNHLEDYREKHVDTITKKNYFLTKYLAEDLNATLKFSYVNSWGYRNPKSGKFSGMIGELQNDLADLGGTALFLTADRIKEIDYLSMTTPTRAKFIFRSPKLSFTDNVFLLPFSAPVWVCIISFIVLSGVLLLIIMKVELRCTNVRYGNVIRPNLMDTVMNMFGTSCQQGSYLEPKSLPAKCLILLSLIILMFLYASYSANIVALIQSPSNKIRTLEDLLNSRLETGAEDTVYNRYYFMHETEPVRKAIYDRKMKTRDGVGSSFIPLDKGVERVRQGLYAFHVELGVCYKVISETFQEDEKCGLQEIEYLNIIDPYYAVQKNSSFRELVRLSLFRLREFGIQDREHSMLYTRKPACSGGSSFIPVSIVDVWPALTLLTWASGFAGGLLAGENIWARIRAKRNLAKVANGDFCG
T1 sequence (A0A1S4F362 23-913 partner): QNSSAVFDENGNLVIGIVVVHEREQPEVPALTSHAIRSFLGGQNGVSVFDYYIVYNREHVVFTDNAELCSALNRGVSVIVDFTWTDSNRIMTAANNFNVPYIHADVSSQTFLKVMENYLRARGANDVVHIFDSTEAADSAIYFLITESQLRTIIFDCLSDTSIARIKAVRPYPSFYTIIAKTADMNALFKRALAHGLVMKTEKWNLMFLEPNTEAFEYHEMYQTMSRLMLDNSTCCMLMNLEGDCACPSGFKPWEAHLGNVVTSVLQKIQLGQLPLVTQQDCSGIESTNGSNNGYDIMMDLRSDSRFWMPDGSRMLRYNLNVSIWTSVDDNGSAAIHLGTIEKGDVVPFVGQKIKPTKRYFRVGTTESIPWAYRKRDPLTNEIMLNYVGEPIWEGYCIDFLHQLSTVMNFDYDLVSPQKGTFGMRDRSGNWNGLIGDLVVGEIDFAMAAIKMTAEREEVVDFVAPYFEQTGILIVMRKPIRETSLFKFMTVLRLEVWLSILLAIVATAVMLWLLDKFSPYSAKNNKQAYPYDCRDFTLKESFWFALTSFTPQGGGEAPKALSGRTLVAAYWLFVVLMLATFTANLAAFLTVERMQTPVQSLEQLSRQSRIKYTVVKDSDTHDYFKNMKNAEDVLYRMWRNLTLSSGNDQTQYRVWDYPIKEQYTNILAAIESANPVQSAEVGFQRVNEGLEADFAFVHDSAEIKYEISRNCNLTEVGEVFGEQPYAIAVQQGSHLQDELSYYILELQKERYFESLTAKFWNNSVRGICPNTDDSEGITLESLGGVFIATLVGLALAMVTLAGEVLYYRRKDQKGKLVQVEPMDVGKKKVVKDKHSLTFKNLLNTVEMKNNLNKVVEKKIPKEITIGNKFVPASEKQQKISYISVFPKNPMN
The assay is described as follows: two-electrode voltage clamp, Xenopus oocytes expressing AaegIR75k1/AaegIR8a. Type of assay: cell-based. (Two-electrode voltage clamp is typically applied to oocytes expressing channels or transporters.)

For the next assay, the target named is T2, AaegIR75k3 (Aedes aegypti, UniProt A0A6I8U3Y9).
T2 construct: gene 5563739; with AaegIR8a
T2 sequence (A0A6I8U3Y9 20-624): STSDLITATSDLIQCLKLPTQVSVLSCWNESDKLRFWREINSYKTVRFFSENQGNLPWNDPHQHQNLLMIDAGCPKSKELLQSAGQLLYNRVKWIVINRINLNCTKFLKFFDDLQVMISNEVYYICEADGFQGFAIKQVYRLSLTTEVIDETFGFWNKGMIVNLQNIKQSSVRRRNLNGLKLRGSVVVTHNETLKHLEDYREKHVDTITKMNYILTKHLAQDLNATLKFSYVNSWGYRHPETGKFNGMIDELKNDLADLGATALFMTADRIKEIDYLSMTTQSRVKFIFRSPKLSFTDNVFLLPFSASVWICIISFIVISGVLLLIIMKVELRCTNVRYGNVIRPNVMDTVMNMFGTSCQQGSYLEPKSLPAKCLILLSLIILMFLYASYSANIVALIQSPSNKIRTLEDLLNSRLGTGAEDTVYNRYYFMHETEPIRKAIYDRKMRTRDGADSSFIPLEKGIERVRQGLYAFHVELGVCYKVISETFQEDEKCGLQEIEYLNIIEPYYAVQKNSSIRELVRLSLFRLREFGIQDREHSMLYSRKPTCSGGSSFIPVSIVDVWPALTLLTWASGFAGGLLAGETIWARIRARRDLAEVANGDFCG
T2 sequence (A0A1S4F362 23-913 partner): T1 sequence (A0A1S4F362 23-913 partner)
The assay is described as follows: two-electrode voltage clamp, Xenopus oocytes expressing AaegIR75k3/AaegIR8a. Type of assay: cell-based.

The subject of another assay is T3, AalbIR75e.
T3 construct: gene Ir75e; with AalbIR8a
The assay is described as follows: two-electrode voltage clamp, Xenopus oocytes expressing AalbIR75e/AalbIR8a. Type of assay: cell-based, Aedes albopictus.

The target in assay [2] is T1, AaegIR75k1. The assay is described as follows: two-electrode voltage clamp, Xenopus oocytes, single concentration […]; response about one quarter of nonanoic acid. Type of assay: cell-based.

Data on two compounds can be found in article PMC10313001, “Carboxylic acids that drive mosquito attraction to humans activate ionotropic receptors” (PLOS Neglected Tropical Diseases, 2023).

What is called EC50 is the concentration that produces a half-maximal response. A high value points to a less potent agent.

Structures are written as SMILES.

As to `CCCCCCCCC(=O)O` [nonanoic acid], the EC50 on AaegIR75k1 [1] was 9.94 µM; at AaegIR75k3, 18.1 µM; in the assay with AalbIR75e it was 8.64 µM.
For `CCCCCCCC(=O)O` [octanoic acid], the “two-electrode voltage clamp, Xenopus oocytes, single concentration 10^-4 M; resp” value on AaegIR75k1 [2] is recorded as “also maximally activated by nonanoic acid, with responses four-fold greater than for octanoic acid”. Moreover, at AaegIR75k3, a half-maximal response (EC50) required 25.2 µM.
